By IC50 is commonly meant the concentration needed to halve the response being measured.

This note sets out measurements from ChEMBL document CHEMBL4765440, “Neuroprotective effects of prenylated flavanones isolated from Dalea species, in vitro and in silico studies” (Eur J Med Chem, 2020).

Data set [1] can be described thus: Cytotoxicity against Sprague-Dawley rat primary cerebellar granule neurons assessed as reduction in cell viability measured after 48 hrs by MTT assay. The data set is classed as tissue-based, Cerebellar granule neurone. Conditions: read-out: LC50.
The subject of data set [2] is Cerebellar granule neurone. Briefly: Neuroprotective activity against H2O2-induced neuronal death in Sprague-Dawley rat primary cerebellar granule neurons assessed as increase in cell viability at 0.5 to 300 uM preincubated for 24 hrs followed by H2O2 addition and measured after 24 hrs by MTT assay. The data set is classed as functional, tissue-based. To be noted: dose 0.5-300 µM, time 48.0 hrs. In general terms: Tetrazolium dyes change colour on reduction, which living cells bring about.

The subject of data set [3] is Cerebellar granule neurone. Briefly: Neuroprotective activity against H2O2-induced neuronal death in Sprague-Dawley rat primary cerebellar granule neurons assessed as reduction in nuclear condensation at 0.5 to 300 uM preincubated for 24 hrs followed by H2O2 addition and measured after 24 hrs by Hoechst 33258 staining based confocal immunofluorescence microscopic analysis. It counts as functional, tissue-based. Conditions: dose 0.5-300 µM, time 48.0 hrs.

The subject of data set [4] is Cerebellar granule neurone. Kind of data set: Neuroprotective activity against H2O2-induced neuronal death in Sprague-Dawley rat primary cerebellar granule neurons assessed as reduction in neurite fragmentation at 0.5 to 300 uM preincubated for 24 hrs followed by H2O2 addition and measured after 24 hrs by Hoechst 33258 staining based confocal immunofluorescence microscopic analysis. It counts as functional, tissue-based. To be noted: dose 0.5-300 µM, time 48.0 hrs.

The nature of data set [5]: Cytotoxicity against […] cells assessed as reduction in cell viability measured after 24 hrs by neutral red staining based spectrophotometric method. To be noted: read-out: LC50.
A short description of data set [6]: (§1) Neuroprotective activity against H2O2-induced neuronal death in Sprague-Dawley rat primary cerebellar granule neurons assessed as increase in cell viability preincubated for 24 hrs followed by H2O2 addition and measured after 24 hrs by MTT assay. The data set is classed as functional, Cerebellar granule neurone. To be noted: time 48 hrs.
Data set [7] deals with T1, Acetylcholinesterase (Homo sapiens, UniProt P22303). Briefly: Inhibition of human erythrocytes AChE using acetylthiocholine iodide as substrate measured after 30 mins by Ellman's method.
Data set [8] is described as follows: Neuroprotective activity against H2O2-induced cell death in […] cells at 0.5 uM preincubated for 24 hrs followed by H2O2 addition and measured after 24 hrs by neutral red staining based spectrophotometric method relative to control. To be noted: time 48 hrs. The data set is classed as functional.
In data set [9] the test system is Cerebellar granule neurone. Kind of data set: Neuroprotective activity against H2O2-induced neuronal death in Sprague-Dawley rat primary cerebellar granule neurons assessed as increase in cell viability at 0.5 to 10 uM preincubated for 24 hrs followed by H2O2 addition and measured after 24 hrs by MTT assay. Conditions: dose 0.5-10 µM, time 48.0 hrs. It counts as functional, tissue-based.

The target of data set [10] is T1, Acetylcholinesterase. Briefly: Potency index, ratio of physostigmine IC50 to test compound IC50 for human erythrocytes AChE.
Data set [11] in a line: Neuroprotective activity against H2O2-induced neuronal death in Sprague-Dawley rat primary cerebellar granule neurons assessed as increase in cell viability preincubated for 24 hrs followed by H2O2 addition and measured after 24 hrs by MTT assay relative to control. The data set is classed as functional, Cerebellar granule neurone. To be noted: time 48 hrs.
The test system of data set [12] is Cerebellar granule neurone. The data set is described as §1. It counts as functional. Conditions: time 48.0 hrs.

Active and inactive are the calls of the source. The rule behind the calls is not given here. A value given as a limit tells only on which side of the number the result lay.

T1 sequence (P22303 whole entry): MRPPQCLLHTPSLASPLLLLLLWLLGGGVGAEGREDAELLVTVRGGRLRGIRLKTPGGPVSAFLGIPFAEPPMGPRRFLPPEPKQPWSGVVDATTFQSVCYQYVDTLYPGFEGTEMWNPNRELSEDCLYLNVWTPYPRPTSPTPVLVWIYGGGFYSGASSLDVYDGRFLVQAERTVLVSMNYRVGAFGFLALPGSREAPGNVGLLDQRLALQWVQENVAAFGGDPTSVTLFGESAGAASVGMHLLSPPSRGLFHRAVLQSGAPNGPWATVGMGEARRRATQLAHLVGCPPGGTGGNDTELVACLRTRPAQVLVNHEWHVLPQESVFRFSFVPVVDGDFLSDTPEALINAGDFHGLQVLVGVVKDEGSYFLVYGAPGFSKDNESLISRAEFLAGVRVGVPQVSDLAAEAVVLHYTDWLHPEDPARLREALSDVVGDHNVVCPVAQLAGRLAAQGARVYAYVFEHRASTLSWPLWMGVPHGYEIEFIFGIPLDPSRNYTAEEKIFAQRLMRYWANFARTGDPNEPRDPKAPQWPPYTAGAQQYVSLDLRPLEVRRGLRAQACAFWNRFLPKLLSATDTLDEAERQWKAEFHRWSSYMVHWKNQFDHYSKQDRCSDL

For the molecule `C=CC(C)(C)c1cc([C@@H]2CC(=O)c3c(cc(O)c(CC=C(C)C)c3O)O2)c(OC)cc1O`, in [1], the CC50 at 48 h worked out at 40.7 µM. In addition, in data set [2], the outcome was inactive.

`CC(C)=CCc1c(O)cc(O)c2c1O[C@H](c1ccccc1)CC2=O` [GLABRANIN]: the outcome in data set [3] and in data set [4] was Active. Moreover, the CC50 at 24 h in [5] was determined as 27.3 µM. Further, the CC50 at 48 h in data set [1] is 44.5 µM. In addition, the EC in [6] is 10 µM. Besides, at Acetylcholinesterase [7], the IC50 was found to be 0.0064 µM. This molecule displayed an Activity in data set [8] of 31.32%. Further, in [9], the result was inactive. For the same molecule, the Ratio IC50 at Acetylcholinesterase [10] turned out to be 12. The “%max” value in data set [11] stood at 20.34%.

Take `O=C1C[C@@H](c2ccccc2)Oc2cc(O)cc(O)c21` [PINOCEMBRIN]: in data set [1], the CC50 at 48 h stood at 247 µM. The outcome in [2] was inactive.

For the molecule `C=CC(C)(C)c1cc([C@@H]2CC(=O)c3c(O)cc(O)c(CC=C(C)C)c3O2)c(O)cc1O`, the outcome in [3] and in [4] was Active. In data set [5], the CC50 at 24 h worked out at 13 µM. In data set [1], the CC50 at 48 h worked out at 12.5 µM. The EC in [6] stood at 5 µM. The molecule also registered an IC50 against Acetylcholinesterase [7] of 29 µM. In [8], the Activity is reported as 51.76%. Also, the result in data set [9] was inactive. Moreover, in [11], the “%max” value was found to be 16.37%.

In the case of `C=CC(C)(C)c1cc([C@@H]2CC(=O)c3c(O)cc(O)c(CC=C(C)C)c3O2)c(OC)cc1O`, the CC50 at 48 h in data set [1] was over 300 µM. Moreover, the Activity entry in [12] was “Dose-dependent effect”. Further, in data set [6], the EC came out at 200 µM. Also, in data set [11], the “%max” value amounted to 22.3%.

On to `CC(C)=CCc1c(O)cc2c(c1O)C(=O)C[C@@H](c1ccc(O)c(O)c1CC=C(C)C)O2`, for which the CC50 at 48 h in [1] was over 300 µM. For the same molecule, the outcome in data set [2] was inactive.
